Source: US7939535B2, “Benzo[D]isoxazol-3-yl-piperazin derivatives useful as modulators of dopamine D3 receptors” (Hoffman-La Roche Inc., priority 2008, dated 2011)

target: T1, human D3 dopamine receptor (Homo sapiens, UniProt P35462); assay: radioligand binding ([3H]-spiperone) to human D3 receptor membranes; conditions: [3H]-spiperone displacement, membranes of HEK-293 EBNA cells transiently expressing human D3
T1 construct: expressed in transfected cells; host or cells: HEK-293 EBNA cells, transient transfection; membrane homogenate
Experimental: The ability of the compounds to bind to the D3 receptors was determined using radioligand binding to cloned receptors selectively expressed in HEK-293 EBNA cells.
HEK-293 EBNA cells were transiently transfected with expression plasmids encoding for the human D3 dopamine receptor. The cells were harvested 48 h post-transfection, washed three times with cold PBS and stored at −80° C. prior to use. The pellet was suspended in cold 50 mM Tris-HCl buffer containing 10 mM EDTA (pH 7.4) and homogenized with a Polytron (Kinematica AG, Basel, Switzerland) for 20-30 sec at 12.000 rpm. After centrifugation at 48.000×g for 30 mM at 4° C., the pellet was resuspended in cold 10 mM Tris-HCl buffer containing 0.1 mM EDTA (pH 7.4), homogenized, and centrifuged as above. This pellet was further resuspended in a smaller volume of ice cold 10 mM Tris-HCl buffer containing 0.1 mM EDTA (pH 7.4) and homogenized with a Polytron for 20-30 sec at 12.000 rpm. The protein content of this homogenate was determined with the Bio-Rad (radford) Protein Assay (Biorad Laboratories GmbH, München, Germany) according to the instructions of the manufacturer using gamma globulin as the standard. This homogenate was stored at −80° C. in aliquots and thawed immediately prior to use.
Aliquots of membrane preparations were thawed at RT, resuspended in assay buffer (50 mM Tris-HCl, 120 mM NaCl, 5 mM MgCl2, 1 mM E TA, 5 mM KCl, 1.5 mM CaCl2, pH=7.4), homogenized with a Polytron for 20-30 sec at 12.000 rpm and adjusted to a final concentration of approximately 7.5 μg protein/well.
The binding affinity (Ki) of the compounds was determined using radioligand binding. Membranes were incubated in a total volume of 200 with a fixed concentration of radioligand (final concentration approximately 0.5 nM [^3H]-spiperone) and ten concentrations of test compound in ranging between 10 μM-0.1 nM for 1 at RT. At the end of the incubation, the reaction mixtures were filtered on to unifilter 96-well white microplates with bonded GF/C filters (Packard BioScience, Zürich, Switzerland; preincubated for 1 h in 0.1% polyethylenimine (PEI) in assay buffer) with a Filtermate 196 harvester (Pack rd BioScience) and washed 3 times with cold assay buffer. The nonspecific binding was determined with equally composed reaction mixtures in the presence of 10 μM unlabelled spiperone. Per well 45 μl of Microscint 40 (Perkin Elmer, Schwerzenbach, Switzerland) was added, plate, for sealed, shaken for 20 mM and counted for 3 mM on a Topcount Microplate Scintillation Counter (Canberra Packard SA, Zürich, Switzerland) with quenching correction.
The CPM value for each duplicate of a concentration of competing compound was averaged (y1), then the % specific binding was calculated according to the equation (((y1−non-specific)/(total binding-non-specific))×100). Graphs were plotted with the % specific binding using XLfit, a curve fitting program that iteratively plots the data using Levenburg Marquardt algorithm. The single site competition analysis equation used was y=A+((B−A)/(1+((x/C)^D))), where y is the % specific binding, A is the minimum y, B is the maximum y, C is the IC50, x is the log10 of the concentration of the competing compound and D is the slope of the curve (the Hill Coefficient). From these curves the IC50 (inhibition concentration at which 50% specific binding of the radioligand was displaced) and Hill coefficient were determined. The affinity constant (Ki) was calculated using the Cheng-Prusoff equation Ki=(IC50/1+([L]/Kd), where [L] is the concentration of radioligand and Kd is the dissociation constant of the radioligand at the receptor as determined by the saturation isotherm.

T1 sequence (P35462 whole entry): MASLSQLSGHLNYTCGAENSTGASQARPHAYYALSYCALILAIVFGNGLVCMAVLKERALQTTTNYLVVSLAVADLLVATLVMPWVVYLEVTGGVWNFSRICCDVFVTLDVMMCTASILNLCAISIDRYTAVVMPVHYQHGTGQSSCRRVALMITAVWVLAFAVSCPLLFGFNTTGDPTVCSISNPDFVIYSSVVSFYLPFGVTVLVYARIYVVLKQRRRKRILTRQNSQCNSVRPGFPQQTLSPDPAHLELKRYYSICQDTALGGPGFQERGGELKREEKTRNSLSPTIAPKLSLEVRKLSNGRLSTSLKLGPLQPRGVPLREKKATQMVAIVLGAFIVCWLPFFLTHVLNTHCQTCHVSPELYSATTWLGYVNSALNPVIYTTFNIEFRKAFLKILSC

SMILES | Ki
CC(=O)N[C@H]1CC[C@H](CCN2CCN(c3noc4c(F)cc(F)cc34)CC2)CC1 [Example 1, N-(trans-4-{2-[4-(5,7-Difluoro-benzo[d]isoxazol-3-yl)-piperazin-1-yl]-ethyl}-cyclohexyl)-acetamide] | 3.7 nM
O=C(CO)N[C@H]1CC[C@H](CCN2CCN(c3noc4c(F)cc(F)cc34)CC2)CC1 [Example 2, N-(trans-4-{2-[4-(5,7-Difluoro-benzo[d]isoxazol-3-yl)-piperazin-1-yl]-ethyl}-cyclohexyl)-2-hydroxy-acetamide] | 3.88 nM
COCC(=O)N[C@H]1CC[C@H](CCN2CCN(c3noc4c(F)cc(F)cc34)CC2)CC1 [Example 3, N-(trans-4-{2-[4-(5,7-Difluoro-benzo[d]isoxazol-3-yl)-piperazin-1-yl]-ethyl}-cyclohexyl)-2-methoxy-acetamide] | 15.6 nM
COCCC(=O)N[C@H]1CC[C@H](CCN2CCN(c3noc4c(F)cc(F)cc34)CC2)CC1 [Example 4, N-(trans-4-{2-[4-(5,7-Difluoro-benzo[d]isoxazol-3-yl)-piperazin-1-yl]-ethyl}-cyclohexyl)-3-methoxy-propionamide] | 3.66 nM
CO[C@H]1CC[C@H](CC(=O)N[C@H]2CC[C@H](CCN3CCN(c4noc5c(F)cc(F)cc45)CC3)CC2)CC1 [Example 5, N-(trans-4-{2-[4-(5,7-Difluoro-benzo[d]isoxazol-3-yl)-piperazin-1-yl]-ethyl}-cyclohexyl)-2-(trans-4-methoxy-cyclohexyl)-acetamide] | 11.8 nM
CCC(=O)N[C@H]1CC[C@H](CCN2CCN(c3noc4c(F)cc(F)cc34)CC2)CC1 [Example 6, N-(trans-4-{2-[4-(5,7-Difluoro-benzo[d]isoxazol-3-yl)-piperazin-1-yl]-ethyl}-cyclohexyl)-propionamide] | 4.53 nM

Continued, values first:

Ki | SMILES
2.72 nM | O=C(CC1CC1)N[C@H]1CC[C@H](CCN2CCN(c3noc4c(F)cc(F)cc34)CC2)CC1 [Example 7, 2-Cyclopropyl-N-(trans-4-{2-[4-(5,7-difluoro-benzo[d]isoxazol-3-yl)-piperazin-1-yl]-ethyl}-cyclohexyl)-acetamide]
9.81 nM | O=C(N[C@H]1CC[C@H](CCN2CCN(c3noc4c(F)cc(F)cc34)CC2)CC1)C1CCOCC1 [Example 8, Tetrahydro-pyran-4-carboxylic acid (trans-4-{2-[4-(5,7-difluoro-benzo[d]isoxazol-3-yl)-piperazin-1-yl]-ethyl}-cyclohexyl)-amide]
5.94 nM | NC(=O)CC(=O)N[C@H]1CC[C@H](CCN2CCN(c3noc4c(F)cc(F)cc34)CC2)CC1 [Example 9, N-(trans-4-{2-[4-(5,7-Difluoro-benzo[d]isoxazol-3-yl)-piperazin-1-yl]-ethyl}-cyclohexyl)-malonamide]
8.57 nM | CC(=O)N[C@H]1CC[C@H](CCN2CCN(c3noc4ccc(F)c(F)c34)CC2)CC1 [Example 10, N-(trans-4-{2-[4-(4,5-Difluoro-benzo[d]isoxazol-3-yl)-piperazin-1-yl]-ethyl}-cyclohexyl)-acetamide]
9.71 nM | COCCC(=O)N[C@H]1CC[C@H](CCN2CCN(c3noc4ccc(F)c(F)c34)CC2)CC1 [Example 11, N-(trans-4-{2-[4-(4,5-Difluoro-benzo[d]isoxazol-3-yl)-piperazin-1-yl]-ethyl}-cyclohexyl)-3-methoxy-propionamide]
